Experimental data from ChEMBL document CHEMBL1201862, “PubChem BioAssay data set” (2004).
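Growth conditions: 96-well plates. Treatment: test compound, 48 hours, 5 concentrations. Analysis: linear interpolation between bracketing concentrations; unreached endpoints set to highest concentration. GI50 is the concentration that inhibits growth by half.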 Activity calls are given as the source filed them. Cut-off read from the data, not from the text of the source: active = GI50 up to about 1.1 µM and inactive = higher.

Legend:
Experiment in all cases: NCI-60 cell line screen, 48 h
[1] = test system: 786-0
[2] = test system: A498
[3] = test system: A549
[4] = test system: ACHN
[5] = test system: BT-549
[6] = test system: CAKI-1
[7] = test system: CCRF-CEM
[8] = test system: COLO 205
[9] = test system: DU-145
[10] = test system: EKVX
[11] = test system: HCT-116
[12] = test system: HCT-15
[13] = test system: HL-60
[14] = test system: HOP-62
[15] = test system: HT-29
[16] = test system: Hs-578T
[17] = test system: IGROV-1
[18] = test system: K562
[19] = test system: KM12
[20] = test system: M14
[21] = test system: MCF7
[22] = test system: MDA-MB-231
[23] = test system: MDA-MB-435
[24] = test system: MDA-N
[25] = test system: MOLT-4
[26] = test system: NCI-H226
[27] = test system: NCI-H23
[28] = test system: NCI-H460
[29] = test system: NCI/ADR-RES
[30] = test system: OVCAR-3
[31] = test system: OVCAR-5
[32] = test system: OVCAR-8
[33] = test system: PC-3
[34] = test system: RPMI-8226
[35] = test system: RXF 393
[36] = test system: SF-268
[37] = test system: SF-295
[38] = test system: SF-539
[39] = test system: SK-MEL-28
[40] = test system: SK-MEL-2
[41] = test system: SK-MEL-5
[42] = test system: SN12C
[43] = test system: SNB-19
[44] = test system: SNB-75
[45] = test system: SR
[46] = test system: SW-620
[47] = test system: T47D
[48] = test system: TK-10
[49] = test system: U-251
[50] = test system: UACC-257
[51] = test system: UACC-62
[52] = test system: UO-31
[53] = test system: LOX IMVI
[54] = test system: Malme-3M
[55] = test system: OVCAR-4
[56] = test system: SK-OV-3

Question: For `CSc1nn(C)cc2ncnc1-2`, which GI50 [1] is on record?
Answer: The GI50 was > 100 µM (inactive).

Question: What about the GI50 [2] of the same compound?
Answer: Its GI50 is > 100 µM (inactive).

Question: And the GI50 [3]?
Answer: Its GI50 is > 100 µM (inactive).

Question: What about the GI50 [4] of the same compound?
Answer: Its GI50 is > 100 µM (inactive).

Question: What about the GI50 [5] of the same compound?
Answer: The GI50 was > 100 µM (inactive).

Question: What about the GI50 [6] of the same compound?
Answer: Its GI50 is > 100 µM (inactive).

Question: What about the GI50 [7] of the same compound?
Answer: The GI50 was > 100 µM (inactive).

Question: What about the GI50 [8] of the same compound?
Answer: Its GI50 is > 100 µM (inactive).

Question: And the GI50 [9]?
Answer: Its GI50 is > 100 µM (inactive).

Question: What about the GI50 [10] of the same compound?
Answer: Its GI50 is > 100 µM (inactive).

Question: And the GI50 [11]?
Answer: The GI50 was > 100 µM (inactive).

Question: And the GI50 [12]?
Answer: The GI50 was > 100 µM.

Question: What about the GI50 [13] of the same compound?
Answer: The GI50 was > 100 µM (inactive).

Question: And the GI50 [14]?
Answer: The GI50 was > 100 µM (inactive).

Question: And the GI50 [15]?
Answer: The GI50 was > 100 µM (inactive).

Question: What about the GI50 [16] of the same compound?
Answer: The GI50 was > 100 µM (inactive).

Question: What about the GI50 [17] of the same compound?
Answer: Its GI50 is > 100 µM (inactive).

Question: What about the GI50 [18] of the same compound?
Answer: Its GI50 is > 100 µM (inactive).

Question: And the GI50 [19]?
Answer: The GI50 was > 100 µM (inactive).

Question: And the GI50 [20]?
Answer: Its GI50 is > 100 µM (inactive).

Question: And the GI50 [21]?
Answer: Its GI50 is > 100 µM (inactive).

Question: What about the GI50 [22] of the same compound?
Answer: Its GI50 is > 100 µM (inactive).

Question: What about the GI50 [23] of the same compound?
Answer: The GI50 was > 100 µM (inactive).

Question: What about the GI50 [24] of the same compound?
Answer: The GI50 was > 100 µM (inactive).

Question: What about the GI50 [25] of the same compound?
Answer: The GI50 was > 100 µM (inactive).

Question: What about the GI50 [26] of the same compound?
Answer: The GI50 was > 100 µM (inactive).

Question: What about the GI50 [27] of the same compound?
Answer: The GI50 was > 100 µM (inactive).

Question: And the GI50 [28]?
Answer: Its GI50 is > 100 µM (inactive).

Question: And the GI50 [29]?
Answer: Its GI50 is > 100 µM (inactive).

Question: And the GI50 [30]?
Answer: Its GI50 is > 100 µM (inactive).

Question: What about the GI50 [31] of the same compound?
Answer: The GI50 was > 100 µM (inactive).

Question: What about the GI50 [32] of the same compound?
Answer: Its GI50 is > 100 µM (inactive).

Question: And the GI50 [33]?
Answer: Its GI50 is > 100 µM (inactive).

Question: And the GI50 [34]?
Answer: The GI50 was > 100 µM (inactive).

Question: What about the GI50 [35] of the same compound?
Answer: The GI50 was > 100 µM (inactive).

Question: And the GI50 [36]?
Answer: The GI50 was > 100 µM (inactive).

Question: And the GI50 [37]?
Answer: Its GI50 is > 100 µM (inactive).

Question: What about the GI50 [38] of the same compound?
Answer: Its GI50 is > 100 µM (inactive).

Question: And the GI50 [39]?
Answer: Its GI50 is > 100 µM (inactive).

Question: What about the GI50 [40] of the same compound?
Answer: Its GI50 is > 100 µM (inactive).

Question: What about the GI50 [41] of the same compound?
Answer: The GI50 was > 100 µM (inactive).

Question: And the GI50 [42]?
Answer: The GI50 was > 100 µM (inactive).

Question: What about the GI50 [43] of the same compound?
Answer: Its GI50 is > 100 µM (inactive).

Question: And the GI50 [44]?
Answer: The GI50 was 0.206 µM (active).

Question: And the GI50 [45]?
Answer: Its GI50 is 97.1 µM (inactive).

Question: What about the GI50 [46] of the same compound?
Answer: Its GI50 is > 100 µM (inactive).

Question: What about the GI50 [47] of the same compound?
Answer: The GI50 was > 100 µM (inactive).

Question: And the GI50 [48]?
Answer: The GI50 was > 100 µM (inactive).

Question: What about the GI50 [49] of the same compound?
Answer: The GI50 was > 100 µM (inactive).

Question: And the GI50 [50]?
Answer: Its GI50 is > 100 µM (inactive).

Question: And the GI50 [51]?
Answer: Its GI50 is > 100 µM (inactive).

Question: And the GI50 [52]?
Answer: The GI50 was > 100 µM (inactive).

Question: Which GI50 [1] does the source give for `COC(=O)/C=C(\S/C(=C(/c1ccccc1)n1cc(C(=O)OC)c(C(=O)OC)n1)c1ccccc1)C(=O)OC` here?
Answer: Its GI50 is 4.79 µM (inactive).

Question: What about the GI50 [2] of the same compound?
Answer: Its GI50 is > 100 µM (inactive).

Question: And the GI50 [3]?
Answer: Its GI50 is 23.9 µM (inactive).

Question: What about the GI50 [4] of the same compound?
Answer: Its GI50 is 3.29 µM (inactive).

Question: What about the GI50 [5] of the same compound?
Answer: The GI50 was 38.5 µM (inactive).

Question: And the GI50 [6]?
Answer: Its GI50 is 2.48 µM (inactive).

Question: And the GI50 [7]?
Answer: Its GI50 is 3.12 µM (inactive).

Question: And the GI50 [8]?
Answer: The GI50 was 1.74 µM (inactive).

Question: What about the GI50 [9] of the same compound?
Answer: Its GI50 is 14.7 µM (inactive).

Question: And the GI50 [10]?
Answer: Its GI50 is 18.2 µM (inactive).

Question: What about the GI50 [11] of the same compound?
Answer: The GI50 was 12.1 µM (inactive).

Question: What about the GI50 [12] of the same compound?
Answer: Its GI50 is 11.6 µM.

Question: What about the GI50 [13] of the same compound?
Answer: Its GI50 is 3.26 µM (inactive).

Question: What about the GI50 [14] of the same compound?
Answer: Its GI50 is 16 µM (inactive).

Question: And the GI50 [15]?
Answer: Its GI50 is 3.33 µM (inactive).

Question: And the GI50 [16]?
Answer: The GI50 was 33.3 µM (inactive).

Question: And the GI50 [17]?
Answer: Its GI50 is 17.7 µM (inactive).

Question: And the GI50 [18]?
Answer: Its GI50 is 3.54 µM (inactive).

Question: And the GI50 [19]?
Answer: The GI50 was 54.6 µM (inactive).

Question: And the GI50 [53]?
Answer: The GI50 was 8.17 µM (inactive).

Question: And the GI50 [20]?
Answer: The GI50 was 12.9 µM (inactive).

Question: What about the GI50 [21] of the same compound?
Answer: The GI50 was 5.26 µM (inactive).

Question: And the GI50 [22]?
Answer: Its GI50 is 22 µM (inactive).

Question: And the GI50 [23]?
Answer: The GI50 was 15.8 µM (inactive).

Question: What about the GI50 [24] of the same compound?
Answer: The GI50 was 17.1 µM (inactive).

Question: What about the GI50 [25] of the same compound?
Answer: Its GI50 is 2.31 µM (inactive).

Question: And the GI50 [54]?
Answer: The GI50 was 14.8 µM (inactive).

Question: And the GI50 [26]?
Answer: Its GI50 is 89.1 µM (inactive).

Question: What about the GI50 [27] of the same compound?
Answer: Its GI50 is 18.1 µM (inactive).

Question: And the GI50 [28]?
Answer: The GI50 was 30.8 µM (inactive).

Question: What about the GI50 [29] of the same compound?
Answer: Its GI50 is 28.4 µM (inactive).

Question: What about the GI50 [30] of the same compound?
Answer: The GI50 was 3.27 µM (inactive).

Question: And the GI50 [55]?
Answer: The GI50 was 13 µM (inactive).

Question: What about the GI50 [31] of the same compound?
Answer: The GI50 was 18.7 µM (inactive).

Question: And the GI50 [32]?
Answer: The GI50 was 2 µM (inactive).

Question: And the GI50 [33]?
Answer: The GI50 was 16.4 µM (inactive).

Question: What about the GI50 [34] of the same compound?
Answer: The GI50 was 1.95 µM (inactive).

Question: And the GI50 [35]?
Answer: Its GI50 is 13.6 µM (inactive).

Question: What about the GI50 [36] of the same compound?
Answer: Its GI50 is 16.1 µM (inactive).

Question: And the GI50 [37]?
Answer: Its GI50 is 53.8 µM (inactive).

Question: What about the GI50 [38] of the same compound?
Answer: Its GI50 is 15.8 µM (inactive).

Question: And the GI50 [39]?
Answer: The GI50 was 20.7 µM (inactive).

Question: What about the GI50 [40] of the same compound?
Answer: The GI50 was 14.9 µM (inactive).

Question: And the GI50 [41]?
Answer: The GI50 was 19.3 µM (inactive).

Question: What about the GI50 [56] of the same compound?
Answer: Its GI50 is > 100 µM (inactive).

Question: What about the GI50 [42] of the same compound?
Answer: Its GI50 is 16.5 µM (inactive).

Question: And the GI50 [43]?
Answer: Its GI50 is 19.5 µM (inactive).

Question: And the GI50 [44]?
Answer: The GI50 was 29.1 µM (inactive).

Question: What about the GI50 [45] of the same compound?
Answer: Its GI50 is 11.6 µM (inactive).

Question: What about the GI50 [46] of the same compound?
Answer: Its GI50 is 2.37 µM (inactive).

Question: What about the GI50 [47] of the same compound?
Answer: Its GI50 is 3.27 µM (inactive).

Question: What about the GI50 [48] of the same compound?
Answer: Its GI50 is 2.86 µM (inactive).

Question: What about the GI50 [49] of the same compound?
Answer: The GI50 was 23.2 µM (inactive).

Question: And the GI50 [50]?
Answer: Its GI50 is 7.33 µM (inactive).

Question: And the GI50 [51]?
Answer: The GI50 was 30.5 µM (inactive).

Question: What about the GI50 [52] of the same compound?
Answer: Its GI50 is 2.24 µM (inactive).
